Experimental data as given in patent US11807852B2, “Compositions and methods for reactivating latent immunodeficiency virus” (The J. David Gladstone Institutes, a testamentary trust …, priority 2014, dated 2023).
“Also recorded” adds a separate entry of the source. Like-named read-outs stand apart in the source and are kept apart here.

What was measured:
J-Lat 5A8 cells = test: SMYD5 shRNA knockdown in J-Lat 5A8 cells (qPCR, GFP flow cytometry); assay type: cell-based; settings: for SMYD5 knockdown efficiency by qPCR: J-Lat 5A8 cells; for reactivation of viral latency (GFP) after CD3/28 antibody stimulation: suboptimal, medium or saturating doses, 24 hours
Description: ShRNA-expressing lentiviral vectors were purchased from Sigma-Aldrich. The plasmids TRCN000155095 (Target sequence: […]) (SEQ ID NO:76) and TRCN0000156306 (Target sequence: […]) (SEQ ID NO:77) were used to deplete SMYD5. The pLKO. I vector containing a scrambled shRNA was used as control. […]; 272:263-7), and titered for p24 content. […] Data were analyzed using FlowJo 9.5 (Tree Star).
RNA was isolated using RNeasy Plus Mini Kit (Qiagen) and reverse-transcribed using SuperScript III Reverse Transcriptase (Invitrogen) as per the manufacturer's instructions. Quantitative RT-PCR was carried out using Maxima SYBR Green qPCR Master Mix (Thermo Scientific) on SDS 2.4 software (Applied Biosystems) in a total volume of 12 μL. Primer efficiencies were around 100%. Dissociation curve analysis was performed after the end of the PCR to confirm the presence of a single and specific product.
To confirm results from the shRNA screen, SMYD5 was individually knocked down in J-Lat 5A8 cells. Cells were transduced with lentiviral vectors expressing two different shRNAs targeting SMYD5 or a scrambled control shRNA, followed by puromycin treatment to select successfully transduced cells. The shRNA knockdown was confirmed using qPCR and failed for #1 and was ˜50% effective for #2 (FIG. 26A). Cells were then stimulated with suboptimal, medium, or saturating doses of CD3/28 antibodies or were left unstimulated for 24 hours, followed by flow cytometry of GFP. […] To test effects of SMYD5 on basal HIV-1 transcription we analyzed RNAs from nonactivated control and SMYD5 knockdown cells with primers specific for the viral LTR; mRNAs for SMYD5 and the NF-κB factor p65 were used as controls (FIG. 26D). SMYD5 knockdown reduced basal HIV-1 transcription by ˜50% mirroring the knockdown efficiency of shRNA #2 (FIG. 26D). In independent experiments to investigate the biological role of SMYD5 during HIV transcription, HeLa cells were transfected with an HIV LTR luciferase construct and expression vectors for Tat and SMYD5. Overexpression of SMYD5 marked activation of a co-transfected viral LTR-luciferase reporter construct was observed (FIGS. 28A and 28B). To identify the target for SMYD5 in HIV-1 infection, we performed in vitro methylation assays with recombinant SMYD5 on purified human histones, Tat (aa 1-72) [SEQ ID NO. 39], NF-κB, RelA, Sp1, and P-TEFb components cyclin T1 and CDK9. Reactions included 3H-SAM and were performed with or without recombinant SMYD5 enzyme. After gel electrophoresis, coomassie staining and autoradiography no methylation was detected for RelA, Sp1, cyclin T1 and CDK9 (FIG. 27). However, histones H3 and H1 were weakly and Tat strongly methylated by SMYD5 (FIG. 27). To map the site of methylation in Tat, we performed in vitro methylation reactions using non-radiolabeled SAM and subjected them to reversed-phase liquid chromatography electrospray tandem mass spectrometry (LC-MS/MS). This analysis identified a single site, trimethylation of K41, identified in two distinct peptides (not shown). No mono or dimethylation at Tat K41 was observed.

[1] = tested on: J-Lat A72 cell line (LTR-GFP)
Description: J-Lat (clones A2 and A72) cell lines were cultured as described in Jordan et al., EMBO J. 2003 Apr. 15:22(8):1868-77. Human αCD3/αCD28 beads (Life Technologies) were used at a concentration of 1 bead/cell ratio. JQ1 (Sigma-Aldrich) was used at a concentration of 0.1-10 μM. Ingenol 3,20-dibenzoate (Sigma-Aldrich) was used at concentrations of 5-200 nM, and SAHA (Sigma-Aldrich) was used at concentrations of 110 nM, 330 nM, or 1 μM.
HEK293T cells were obtained from the American Type Culture Collection. J-Lat (clones A2, A72, and 5A8) cell lines were described (Chan et al., 2013; Jordan et al., 2003). HEK293T cells were cultured in DMEM supplemented with 10% FBS, 1% L-glutamine and 1% penicillin-streptomycin (Life Technologies). J-Lat cells were cultured in RPMI supplemented with 10% FBS, 1% L-glutamine and 1% penicillin-streptomycin (Life Technologies). […] TNFα (Sigma-Aldrich) was used at 0.5-10 ng/ml. Human αCD3/αCD28 Dynabeads (Invitrogen) were used at a 1 bead/cell ratio. JQ1 (Cayman Chemical) was used at 0.1-10 μM. Ingenol 3,20-dibenzoate (Santa Cruz Biotechnology) was used at 5-200 nM, and SAHA (Merck) was used at 110 nM, 330 nM, or 1 μM. Phorbol 12-myristate 13-acetate (PMA) (Sigma) was used at 10 nM and ionomycin (Sigma) was used at a concentration of 500 nM. UNC926 (Tocris Bioscience) was used at a concentration of 10 nM-100 μM. AZ505. AZ506, and AZ391 were used at a concentration of 10 nM-10 μM.
ShRNA-expressing lentiviral vectors were purchased from Sigma-Aldrich. The pLKO.1 vector containing a scrambled shRNA was used as control. […] J-Lat 5A8, A72 and A2 cells were spininfected with virus (1 ng of p24 per 10^6 cells) containing shRNAs against KMTs or nontargeting control shRNAs and were selected with puronycin (2 μg/ml: Sigma). After 7 days of selection, cells were treated with the indicated concentration of drugs. The percentage of GFP^+ cells was determined after 18 h using a MACSQuant VYB FACS analyzer (Miltenyi Biotech GmbH). Cell viability was monitored by forward-and-side scatter analysis. Analysis was conducted on 3×10,000 live cells per condition. Data were analyzed using FlowJo 9.5 (Tree Star).

[2] = cited from earlier work
[3] = tested on: J-Lat cells (clone A2: LTR-Tat-IRES-GFP); assay type: cell-based; settings: A2 J-Lat cells, single agent
Description: To test this hypothesis, J-Lat cells (clone A2: LTR-Tat-IRES-GFP) were treated with SMYD2 inhibitors. […] Both cell lines were co-treated with X2 and Ingenol 3,20-dibenzoate (a protein kinase C (PKC) activator), JQ1 (BET-bromodomain inhibitor), or the histone deacetylase (HDAC) inhibitor suberoylanilidehydroxamic acid (SAHA).

SMYD2 = SMYD2 (Homo sapiens, UniProt Q9NRG4); settings: cited from earlier work
Sequence of SMYD2 (Q9NRG4 whole entry): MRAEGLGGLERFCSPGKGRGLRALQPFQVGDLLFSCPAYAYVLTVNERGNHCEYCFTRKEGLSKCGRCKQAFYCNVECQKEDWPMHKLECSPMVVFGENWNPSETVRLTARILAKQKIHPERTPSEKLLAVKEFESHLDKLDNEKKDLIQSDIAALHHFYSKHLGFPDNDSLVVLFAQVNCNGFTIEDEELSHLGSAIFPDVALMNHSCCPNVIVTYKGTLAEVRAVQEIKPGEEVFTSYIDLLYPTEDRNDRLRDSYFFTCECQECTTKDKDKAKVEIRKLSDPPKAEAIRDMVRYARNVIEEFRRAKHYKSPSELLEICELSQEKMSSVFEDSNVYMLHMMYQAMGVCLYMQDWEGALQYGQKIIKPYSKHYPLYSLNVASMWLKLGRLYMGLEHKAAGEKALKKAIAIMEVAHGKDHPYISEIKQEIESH

L3MBTL1 = biological target: T1, L3MBTL1 (Homo sapiens, UniProt Q9Y468); settings: cited from earlier work
T1 sequence (Q9Y468 1-840): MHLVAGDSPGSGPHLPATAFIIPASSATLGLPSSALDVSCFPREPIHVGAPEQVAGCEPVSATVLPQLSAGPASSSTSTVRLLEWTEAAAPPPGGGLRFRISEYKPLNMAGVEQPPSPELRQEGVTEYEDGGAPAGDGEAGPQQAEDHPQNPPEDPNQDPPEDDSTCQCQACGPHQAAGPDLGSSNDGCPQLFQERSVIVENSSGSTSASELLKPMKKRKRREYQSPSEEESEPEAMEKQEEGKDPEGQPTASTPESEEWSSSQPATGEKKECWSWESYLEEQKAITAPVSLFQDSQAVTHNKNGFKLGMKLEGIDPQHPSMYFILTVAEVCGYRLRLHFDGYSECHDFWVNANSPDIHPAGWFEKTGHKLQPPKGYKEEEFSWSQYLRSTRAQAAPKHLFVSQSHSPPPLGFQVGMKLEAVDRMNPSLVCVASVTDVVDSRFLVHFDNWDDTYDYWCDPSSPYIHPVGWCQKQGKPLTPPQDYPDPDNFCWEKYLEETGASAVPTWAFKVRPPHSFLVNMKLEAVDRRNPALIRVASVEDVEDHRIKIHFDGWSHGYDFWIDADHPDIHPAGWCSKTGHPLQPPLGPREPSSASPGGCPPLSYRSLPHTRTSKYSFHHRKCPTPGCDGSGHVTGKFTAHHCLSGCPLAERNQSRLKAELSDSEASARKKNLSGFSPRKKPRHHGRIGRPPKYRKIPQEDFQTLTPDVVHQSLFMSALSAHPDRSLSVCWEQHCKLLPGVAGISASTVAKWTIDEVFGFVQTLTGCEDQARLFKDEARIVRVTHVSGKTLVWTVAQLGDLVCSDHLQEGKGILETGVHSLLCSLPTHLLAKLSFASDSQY

shRNA #2: lentiviral shRNA targeting SMYD5 (SEQ ID NO:75) (CCGGCTGTGACACTCTGGAGTTGAACTCGAGTTCAACTCCAGAGTGTCACAGTTTTTTG)
SMYD5 knockdown efficiency by qPCR (J-Lat 5A8 cells): ~50% | reduction of basal HIV-1 transcription (viral LTR RNA, RT-qPCR) (J-Lat 5A8 cells; nonactivated cells): ~50% | reactivation of viral latency (GFP) after CD3/28 antibody stimulation (J-Lat 5A8 cells): suppressed reactivation of viral latency

O=C(NCCCN1CCCC1)c1cncc(-c2ccccc2N2CCN(CCc3c[nH]c4ccccc34)CC2)c1 [AZ506]
activation of GFP expression / reactivation of the HIV-LTR ([1]; A72 J-Lat cells, single agent): activated GFP expression at high concentrations | cell permeability [2]: cell-permeable

shRNA #1: lentiviral shRNA targeting SMYD5 (SEQ ID NO:74) (CCGGGCTATGGGAATTACAACCCATCTCGAGATGGGTTGTAATTCCCATAGCTTTTTTG)
SMYD5 knockdown efficiency by qPCR (J-Lat 5A8 cells): failed | reactivation of viral latency (GFP) after CD3/28 antibody stimulation (J-Lat 5A8 cells): had no effect

O=C1COc2c(CCNCCN(C(=O)CCNCCc3ccc(Cl)c(Cl)c3)C3CCCCC3)ccc(O)c2N1 [AZ505, N-cyclohexyl-3-((3,4-dichlorophenethyl)amino)-N-(2-((2-(5-hydroxy-3-oxo-3,4-dihydro-2H-benzo[b][1,4]oxazin-8-yl)ethyl)amino)ethyl)propanamide bis(2,2,2-trifluoroacetate), reference compound]
activation of HIV transcription / reactivation of the HIV-LTR (GFP) [3]: failure of AZ505 to effectively activate HIV transcription | Kd compared with the p53 peptide (SMYD2): approximately sevenfold lower than the p53 peptide | cell permeability ([2]; bis(2,2,2-trifluoroacetate)): lack of cell permeability; also recorded: not cell-penetrable

UNC926 [reference compound]
concentration at which activation is observed ([1]; A72, 10 nM-100 μM, without or with 0.1 ng/ml TNFα, 18 h): 100 µM | viability by forward-side scatter analysis ([1]; A72, up to 100 μM, 18 h): No effect on viability | basal transcriptional activity ([1]; A72 J-Lat cells): a doubling in basal transcriptional activity | Kd (L3MBTL1): 3.9 µM
